# From PMC3112458, “Marked increase in etravirine and saquinavir plasma concentrations during atovaquone/proguanil prophylaxis” (Malaria Journal, 2011)
# Where two headings read alike, the source gives them in different places.
# What was measured:
# P450 system = test system: P450 system; set-up: method as in PMID 9530286, PMID 9835508; conditions: cited from earlier work
# P-glycoprotein and MRP1 = test system: P-glycoprotein and MRP1; set-up: method as in PMID 9530286, PMID 9835508; conditions: cited from earlier work
# [1] = 12 hour-PK of anti-retrovirals before and at day 20 of atovaquone/proguanil prophylaxis (HPLC-UV, plasma); assay type: in vivo, human; conditions: for Δ AUC0-12h (during prophylaxis AUC minus pre-prophylaxis AUC): plasma, one HIV patient, day 20 of atovaquone/proguanil 250/100 mg daily vs before prophylaxis
# Experimental: In September 2009, the patient planned to spend a two-week holiday in Kenya. […] Standard malaria prophylaxis with atovaquone/proguanil fixed-dose combination (250/100 mg) was prescribed: one tablet daily starting two days before the journey and ending the treatment seven days after return to Italy. A 12 hour-PK of anti-retrovirals was performed before starting prophylaxis with atovaquone/proguanil (Figure 1). The samples were collected in fasting status following this order: the first sample 12 hours after the last dose of anti-retrovirals (pre-dose); the second sample one hour after breakfast and anti-retrovirals consumption; the following samples at 2, 4, 6 and 12 hours post anti-retrovirals' intake. The second PK for the determination of anti-retrovirals' plasma concentrations during atovaquone/proguanil prophylaxis was collected at day 20 on prophylaxis with the same timing plan (Figure 1). In order to avoid any food interference with the PK results, the same diet was administered in both the PK sampling days.
# [2] = set-up: method as in PMID 20299957; conditions: cited from earlier work
# [3] = set-up: method as in PMID 17297027; conditions: cited from earlier work
# [4] = set-up: method as in PMID 17297027; conditions: cited from earlier work; remark: listed apart in the source
# [5] = test system: CYP2C9, 2C19 and P-glycoprotein; set-up: method as in PMID 19725591; conditions: cited from earlier work
# CYP3A = test system: CYP3A; set-up: method as in PMID 19725591; conditions: cited from earlier work
smiles,measurement,setting,value
CC(C)(C)NC(=O)[C@@H]1C[C@@H]2CCCC[C@@H]2CN1C[C@@H](O)[C@H](Cc1ccccc1)NC(=O)[C@H](CC(N)=O)NC(=O)c1ccc2ccccc2n1 [saquinavir],induction or inhibition of P450 system,P450 system,neither an inducer nor an inhibitor
same,interaction with P-glycoprotein and MRP1,P-glycoprotein and MRP1,substrate and inhibitor
same,Δ AUC0-12h (during prophylaxis AUC minus pre-prophylaxis AUC),[1],+274%
Cc1nnc(C(=O)NC(C)(C)c2nc(C(=O)NCc3ccc(F)cc3)c(O)c(=O)n2C)o1 [raltegravir],Tmax and Cmax in post-prophylaxis versus pre-prophylaxis,"[1]; PK profiles, day 20 of atovaquone/proguanil prophylaxis",earlier
same,Δ AUC0-12h (during prophylaxis AUC minus pre-prophylaxis AUC),[1],-23%
O=C1C(O)=C([C@H]2CC[C@H](c3ccc(Cl)cc3)CC2)C(=O)c2ccccc21 [atovaquone],geometric mean ratio (95% confidence interval) of AUC of atovaquone,[2]; patients on atazanavir/ritonavir compared with healthy volunteers,0.54 (0.35-0.83)
same,geometric mean ratio (95% confidence interval) of AUC of atovaquone,[2]; patients on efavirenz compared with healthy volunteers,0.25 (0.16-0.38)
same,geometric mean ratio (95% confidence interval) of AUC of atovaquone,[2]; patients on lopinavir/ritonavir compared with healthy volunteers,0.26 (0.17-0.41)
same,elimination half-life,[3]; adults,48 to 72 h
same,drug excreted unchanged in the faeces,[3],94%
same,protein-bound,[4],> 99%
Cc1cc(C#N)cc(C)c1Oc1nc(Nc2ccc(C#N)cc2)nc(N)c1Br [etravirine],"inhibition of CYP2C9, 2C19 and P-glycoprotein",[5],mild inhibitor
same,induction of CYP3A,CYP3A,inducer
same,Δ AUC0-12h (during prophylaxis AUC minus pre-prophylaxis AUC),[1],+55%
[H]/N=C(\N/C(=N/[H])Nc1ccc(Cl)cc1)NC(C)C [proguanil],plasma concentrations lower,"[2]; patients on efavirenz, lopinavir/ritonavir or atazanavir/ritonavir compared with healthy volunteers",38-43%
same,absolute bioavailability,[3],≤ 60%
same,elimination half-life,[3],12 to 21 h
same,time to peak plasma concentrations,[3],2 to 4 h
same,protein-bound,[4],75%
